# Marks after values point to notes of the source that are not given here.
# Key:
# [1] = test system: peripheral blood cells; assay: s.c. dose finding study, hematological analysis of peripheral blood
# [2] = test system: stem cells; conditions: mice (Broxmeyer 2005); cited from earlier work
# [3] = clinical trials (CHMP Assessment Report); cited from earlier work
# [4] = test system: HGF; assay: s.c. dose finding study, HGF-ELISA; conditions: one hour after administration of AMD3100
# [5] = AMD3100 5 mg/kg s.c., 1 hour, mean ± SEM
structure (smiles),measurement,setting,value
"c1cc(CN2CCCNCCNCCCNCC2)ccc1CN1CCCNCCNCCCNCC1 [AMD3100, 1,1′-[1,4-phenylenebis (methylene)]-bis-1,4,8,11-tetraazacyclotetradecane, reference compound]",Basophils,[1]; [5],0.03 ± 0.0 10^9 cells/L
same,Eosinophils,[1]; [5],0.3 ± 0.0* 10^9 cells/L
same,LUC,[1]; [5],0.05 ± 0.0* 10^9 cells/L
same,Leukocytes (WBC),[1]; [5],7.8 ± 0.6* 10^9 cells/L
same,Lymphocytes,[1]; [5],5.3 ± 0.4 10^9 cells/L
same,MPV,[1]; [5],8.0 ± 0.1
same,Monocytes,[1]; [5],0.3 ± 0.0 10^9 cells/L
same,Neutrophils,[1]; [5],1.8 ± 0.2* 10^9 cells/L
same,Erythrocytes,"[1]; mouse, in vivo, sc, 5 mg/kg",8.0 ± 0.0*** 10^12 cells/L
same,Hemoglobin,"[1]; mouse, in vivo, sc, 5 mg/kg",112.5 ± 0.9
same,MCHC,"[1]; mouse, in vivo, sc, 5 mg/kg",332.0 ± 2.0 g/L
same,MCV,"[1]; mouse, in vivo, sc, 5 mg/kg",42.7 ± 0.6 fL
same,Platelets,"[1]; mouse, in vivo, sc, 5 mg/kg",706.8 ± 30.7** 10^9 cells/L
same,Reticulocytes,"[1]; mouse, in vivo, sc, 5 mg/kg",186.3 ± 23.7 10^9 cells/L
same,time of peak in mobilized stem cells after plerixafor administration,[2],1 h
same,HSCT patients who experienced infections after transplantation,[3],20-25%
same,HGF levels,[4],650 ± 230 pg/mL

# Source: patent US10258642B2, “Dextran sulfate for use in mobilization of cells” (TX MEDIC AB, priority 2013, dated 2019)
